Laboratory results reported in patent US11617723B2, “Composition for hepatic arterial chemoembolization using human serum albumin nanoparticles carrying anticancer agent, and method for producing same” (SOGANG UNIVERSITY RESEARCH FOUNDATION, priority 2016, dated 2023).

Assay: In vitro drug release behavior (dialysis membrane in phosphate buffer saline, 37° C.)
Assay type: physicochemical
Conditions: 2000 Da dialysis membrane, PBS, 5 mg Adriamycin, FIG. 6
Procedure: In addition, the human serum albumin nanoparticles and lipiodol, which is an embolic material, are mixed in various ratios using the same method as that used in hepatic arterial chemoembolization to be changed into an emulsion form, and the released Adriamycin is quantitatively analyzed to measure drug release behaviors.
To analyze Adriamycin released from the Adriamycin-bound human serum albumin nanoparticles, 1 mL (Adriamycin content: 5 mg) of each of the prepared samples is injected into a 2000 Da dialysis membrane and completely sealed. The resulting structure is added to a tube containing 10 mL of phosphate buffer saline and shaken at 37° C., and the dialysis membrane is transferred to a tube containing 10 mL of phosphate buffer saline at a predetermined time point to obtain each sample every time point. Groups of prepared samples are as follows:
Group 1.—free Adriamycin in phosphate buffer saline (free DOX (PBS)) or contrast media (free DOX(Pamiray)) • free Adriamycin & lipiodol with volume ratio of 1:4 (free DOX (1:4)) • human serum albumin nanoparticles carrying Adriamycin in phosphate buffered saline (DOX-HSA-NPs (PBS)) or a contrast medium (DOX-HSA-NPs (Pamiray)) • human serum albumin nanoparticles carrying Adriamycin & lipiodol in a volume ratio of 1:4 (DOX-HSA-NPs (1:4)) […]

COc1cccc2c1C(=O)c1c(O)c3c(c(O)c1C2=O)C[C@@](O)(C(=O)CO)C[C@@H]3O[C@H]1C[C@H](N)[C@H](O)[C@H](C)O1 [free DOX, Adriamycin]
time of most release of the drug: ≤ 3 h
